# Measured values from patent US8470765B2, “Polypeptides and antibacterial or antiseptic use of same” (AnGes MG, Inc., priority 2009, dated 2013).
# Like-named read-outs stand apart in the source and are kept apart here. No end group written: not given here.
# How the values were obtained:
# [1] = system: Bacillus subtilis NBRC3134
# [2] = system: methicillin-sensitive Staphylococcus (MSSA) MSSA(ii); test: organism not typed; details: for MIC: read-out: MIC MSSA(ii)
# Method: (§1) Bacteria (Escherichia coli ATCC 25922, Pseudomonas aeruginosa ATCC 27853, Staphylococcus aureus ATCC29213, Klebsiella pneumoniae JCM 1662, Enterobacter cloacae JCM 1232, Enterobacter aerogenes JCM 1235 and Staphylococcus epidermidis JCM 2414) were inoculated to Mueller-Hinton broth: MHB or LB medium, and cultured at a temperature and period suited for each strain. From the thus obtained colonies, each strain was inoculated to a fresh liquid medium and cultured for 16 to 20 hours. Then an aliquot having a volume (10 to 50 appropriate to each strain was inoculated to a fresh liquid medium and cultured for 4 to 6 hours, followed by the measurement of the absorbance at 600 nm. After comparing the turbidity with McFarland #0.5, the resultant was diluted with a medium. Each strain was added to about 10^5 CFU/mL (final concentration).
# (§2) Further, the antibacterial activities against the clinical strains collected and isolated from infected patients were also examined. The tests were carried out for two methicillin-resistant Staphylococcus (MRSA) (MRSA (i) and (ii)), two methicillin-sensitive Staphylococcus (MSSA) (MSSA (i) and (ii)), five Pseudomonas aeruginosa, Pseudomonas aeruginosa 1, Pseudomonas aeruginosa 6, Pseudomonas aeruginosa 8. Pseudomonas aeruginosa 9 and Pseudomonas aeruginosa 12, totally 9 clinical strains. The MRSA and MSSA clinical strains were tested by the same method as Staphylococcus aureus ATCC29213, and Pseudomonas clinical strains were tested by the same method as Pseudomonas aeruginosa ATCC 27853.
# (§3) Each of the peptide solutions to be tested was diluted with MHB to obtain a solution of 128 μg/mL. This solution was serially diluted with the medium to prepare peptide-containing media having concentrations of 128, 64, 32, 16, 8.0, 4.0 and 2.0 μg/mL respectively. […] By dilution with sterilized purified water to 1.0 mg/mL, positive control-containing media having concentrations of 16, 8, 4, 2, 1.0, 0.25, 0.12 and 0.06 μg/mL, respectively for TOB; 0.5, 0.12 and 0.06 μg/mL, respectively, for OX; and 16, 8, 4, 2, 1.0, 0.25, 0.12, 0.06, 0.06, 0.03 and 0.008 μg/mL, respectively, for MEPM, were prepared.
# (§4) To a 96-well microtiter plate, 0.1 mL of the inoculation solution and 0.1 mL of the peptide- or positive control-containing medium having the respective concentration were added, and cultured at 37° C. for 16 to 24 hours (or a time period suited for the growth of the respective strain). The well not containing the sample was used as a negative control. After the culturing, the growth was visually observed, and the minimum concentration at which the growth was inhibited was defined as the minimum growth inhibition concentration (MIC).
# (§5) The medium used in this test for bacteria was Mueller-Hinton broth. Independent experiments were carried out twice or more for each strain.
# [3] = system: methicillin-resistant Staphylococcus (MRSA) MRSA(i); test: organism not typed; details: for MIC: read-out: MIC MRSA(i)
# Method: as §1, §2, §3, §4, §5
# [4] = system: methicillin-resistant Staphylococcus (MRSA) MRSA(ii); test: organism not typed; details: for MIC: read-out: MIC MRSA(ii)
# Method: as §1, §2, §3, §4, §5
# [5] = system: methicillin-sensitive Staphylococcus (MSSA) MSSA(i); test: organism not typed; details: Table 4; clinical strain; first/second value where not identical
# Method: as §1, §2, §3, §4, §5
# [6] = system: Aspergillus niger NBRC 9455
# [7] = system: Trichophyton mentagrophytes NBRC6124; details: NBRC6124
# [8] = system: Salmonella typhimurium JCM1652
# [9] = system: Actinobacillus actinomycetemcomitans JCM2434
# [10] = system: Micrococcus luteus NBRC13867
# [11] = system: Salmonella enteritidis IID 604
# [12] = system: Fusobacterium nucleatum JCM 11025
# [13] = system: Acinetobacter baumanni JCM6841
# [14] = system: Rhizopus oryzae NBRC 31005
# [15] = system: Streptococcus pyogenes JCM5674
# [16] = system: Pseudomonas aeruginosa (P. aeruginosa ATCC27853); test: ATP assay (BacTiter-Glo) viability, Table 2; assay type: cell-based; details: ATCC27853, 3 h, read-out: Viability (%) P. aeruginosa
# Method: (§6) The antibacterial activity of the polypeptides was measured using the ATP assay method.
# (§7) Using BacTiter-Glo Microbial Cell Viability Assay kit available from PROMEGA, the antibacterial activity of the peptides was evaluated from the viability of bacteria. That is, ATP amount in viable bacteria in cases where the concentration of the peptides was 10 μg/ml, was measured using a microtiter plate or test tubes.
# (§8) With respect to the strains, Staphylococcus aureus (S. aureus ATCC29213) as Gram-positive bacteria, or, alternatively, Pseudomonas aeruginosa (P. aeruginosa ATCC27853) as Gram-negative bacteria, was used. The bacteria were cultured in media for 3 to 4 hours, and thereafter absorbances at A600 were measured. Bacterial suspensions were diluted with Mueller-Hinton broth (MHB) according to McFarland #0.5. Each strain was added so as to attain about 0.5-1×10^5 CFU/mL (final concentration) in terms of Escherichia coli. Each peptide was prepared and added to a microplate or test tubes so as to attain a final concentration of […], and the bacterial suspension was added thereto. […] The plate was incubated at 37° C. for 3 hours, and the amount of ATP in the culture media was measured. Relative values were calculated by comparison with the negative control, and these values were regarded as the viability.
# [17] = system: Staphylococcus aureus (S. aureus ATCC29213); test: ATP assay (BacTiter-Glo) viability, Table 2; assay type: cell-based; details: ATCC29213, 3 h, read-out: Viability (%) S. aureus
# Method: as §6, §7, §8
# [18] = methicillin-sensitive Staphylococcus (ii)
# [19] = methicillin-resistant Staphylococcus (i)
# [20] = methicillin-resistant Staphylococcus (ii)
# [21] = Table 4, two tests, first/second value where not identical
# [22] = Table 4, clinical strain, first/second value where not identical
Compound,MIC Bacillus subtilis ([1]; NBRC3134),"MIC MSSA(ii) [2, 18]","MIC MRSA(i) [3, 19]","MIC MRSA(ii) [4, 20]",MIC MSSA(i) [5],"MIC Aspergillus niger [6, 21]",MIC Trichophyton mentagrophytes [7],MIC Salmonella Typhimurium ([8]; JCM1652),MIC Actinobacillus actinomycetemcomitans [9],MIC Micrococcus luteus [10],MIC Salmonella Enteritidis ([11]; IID 604),MIC Fusobacterium nucleatum ([12]; JCM 11025),MIC Acinetobacter baumanni ([13]; JCM6841),MIC Rhizopus oryzae ([14]; NBRC 31005),MIC Streptococcus pyogenes [15],other results
RLKRMRKRLKRKLRLWHRKRYK-NH2 [SRP-8],8 µg/mL,32 µg/mL,64 µg/mL,64 µg/mL,32/64,16/32,32 µg/mL,64 µg/mL,> 128 µg/mL,2 µg/mL,64 µg/mL,> 128 µg/mL,128 µg/mL,8 µg/mL,64 µg/mL,
GRLKRMGKRLKRKIQKWARW-NH2 [SRP-14],4 µg/mL,,,,16/32,4/8,16 µg/mL,,64 µg/mL,4 µg/mL,4 µg/mL,4 µg/mL,64 µg/mL,8 µg/mL,16 µg/mL,"MIC MSSA(ii) [2, 22]: 16/32; MIC MRSA(i) [3, 22]: 16/32; MIC MRSA(ii) [4, 22]: 16/32; MIC Salmonella Typhimurium [8, 21]: 4/8"
KLIFLRELRRLRKRLKRKLR-NH2 [SRP-16],,16 µg/mL,32 µg/mL,64 µg/mL,16/32,8/16,32 µg/mL,8 µg/mL,128 µg/mL,2 µg/mL,4 µg/mL,128 µg/mL,128 µg/mL,,32 µg/mL,"MIC Bacillus subtilis [1, 21]: 8/4; MIC Rhizopus oryzae [14, 21]: 8/16"
IFLHRLKRMRKRLKRKLRLW-OH [SRP-7],4 µg/mL,,,,,8/16,32 µg/mL,4 µg/mL,128 µg/mL,2 µg/mL,4 µg/mL,4 µg/mL,128 µg/mL,,32 µg/mL,"MIC Rhizopus oryzae [14, 21]: 8/16"
"KNLRRIIRKIIHIIKKYG-NH2 [Ovispirin-1, reference compound]",2 µg/mL,16 µg/mL,32 µg/mL,32 µg/mL,16/32,,32 µg/mL,16 µg/mL,128 µg/mL,2 µg/mL,16 µg/mL,,,> 128 µg/mL,32 µg/mL,"MIC Aspergillus niger ([6]; NBRC 9455): 32 µg/mL; MIC Fusobacterium nucleatum [12, 21]: 2/4; MIC Acinetobacter baumanni [13, 21]: 4/8"
GRLKRMGERLKRKIQKWIRW-NH2 [SRP-15],4 µg/mL,16 µg/mL,16 µg/mL,,16/32,8/16,32 µg/mL,,32 µg/mL,4 µg/mL,,4 µg/mL,32 µg/mL,16 µg/mL,16 µg/mL,"MIC MRSA(ii) [4, 22]: 16/32; MIC Salmonella Typhimurium [8, 21]: 8/4; MIC Salmonella Enteritidis [11, 21]: 8/16"
"NC[C@H]1O[C@H](O[C@H]2[C@H](O)[C@@H](O[C@H]3O[C@H](CO)[C@@H](O)[C@H](N)[C@H]3O)[C@H](N)C[C@@H]2N)[C@H](N)C[C@@H]1O [tobramycin, reference compound]",,,,,,,,,,,,,,,,viability at 1 µg/mL [16]: 1.8%; viability at 1 µg/mL [17]: 3.6%; MIC [2]: 4 µg/mL; MIC [3]: > 16000 µg/mL; MIC [4]: > 16000 µg/mL
RLKRMRKRLKRKLRLW-NH2 [SRP-17],8 µg/mL,,,,,8/16,16 µg/mL,16 µg/mL,> 128 µg/mL,1 µg/mL,8 µg/mL,> 128 µg/mL,128 µg/mL,8 µg/mL,128 µg/mL,
KLIFLHRLKRELRKRLKRKLR-NH2 [SRP-13],4 µg/mL,16 µg/mL,64 µg/mL,64 µg/mL,16/32,,32 µg/mL,4 µg/mL,128 µg/mL,2 µg/mL,4 µg/mL,4 µg/mL,,8 µg/mL,32 µg/mL,"MIC Aspergillus niger ([6]; NBRC 9455): 16 µg/mL; MIC Acinetobacter baumanni [13, 21]: 16/32"
"C[C@@H](O)[C@H]1C(=O)N2C(C(=O)O)=C(S[C@@H]3CN[C@H](C(=O)N(C)C)C3)[C@H](C)[C@H]12 [meropenem, reference compound]",,,,,,,,,,,,,,,,MIC [2]: 4 to 8 µg/mL; MIC [3]: < 4000 µg/mL; MIC [4]: 8 to 16 µg/mL
LIFLHRLKRMRKRLKRKLRL-NH2 [SRP-12],,16 µg/mL,32 µg/mL,,16 µg/mL,8/16,,,,,,,,8 µg/mL,,"MIC MRSA(ii) [4, 22]: 32/64"
